Reference: patent US7102009B2, “Substituted amine derivatives and methods of use” (Amgen Inc., priority 2001, dated 2006)

test system: Human Umbilical Vein Endothelial cells (VEGF-stimulated HUVEC proliferation); experiment: HUVEC Proliferation Assay (VEGF-stimulated); format: cell-based; settings: VEGF 50 ng/mL, 72 h incubation, CyQuant readout, read-out: inhibited VEGF-stimulated HUVEC proliferation at a level below (IC50)
Description: Human Umbilical Vein Endothelial cells are purchased from Clonetics, Inc., as cryopreserved cells harvested from a pool of donors. These cells, at passage 1, are thawed and expanded in EBM-2 complete medium, until passage 2 or 3. The cells are trypsinized, washed in DMEM+10% FBS+antibiotics, and spun at 1000 rpm for 10 min. Prior to centrifugation of the cells, a small amount is collected for a cell count. After centrifugation, the medium is discarded, and the cells are resuspended in the appropriate volume of DMEM+10% FBS+antibiotics to achieve a concentration of 3×10^5 cells/mL. Another cell count is performed to confirm the cell concentration. The cells are diluted to 3×10^4 cells/mL in DMEM+10% FBS+antibiotics, and 100 μL of cells are added to a 96-well plate. The cells are incubated at 37° C. for 22 h.
Prior to the completion of the incubation period, compound dilutions are prepared. Five-point, five-fold serial dilutions are prepared in DMSO, at concentrations 400-fold greater than the final concentrations desired. 2.5 μL of each compound dilution are diluted further in a total of 1 mL DMEM+10% FBS+antibiotics (400× dilution). Medium containing 0.25% DMSO is also prepared for the 0 μM compound sample. At the 22-hour timepoint, the medium is removed from the cells, and 100 μL of each compound dilution is added. The cells are incubated at 37° C. for 2-3 h.
During the compound pre-incubation period, the growth factors are diluted to the appropriate concentrations. Solutions of DMEM+10% FBS+antibiotics, containing either VEGF or bFGF at the following concentrations: 50, 10, 2, 0.4, 0.08, and 0 ng/mL are prepared. For the compound-treated cells, solutions of VEGF at 550 ng/mL or bFGF at 220 ng/mL for 50 ng/mL or 20 ng/mL final concentrations, respectively, are prepared since 10 μL of each will be added to the cells (110 μL final volume). At the appropriate time after adding the compounds, the growth factors are added. VEGF is added to one set of plates, while bFGF is added to another set of plates. For the growth factor control curves, the media on wells B4-G6 of plates 1 and 2 are replaced with media containing VEGF or bFGF at the varying concentrations (50-0 ng/mL). The cells are incubated at 37° C. for an additional 72 h.
At the completion of the 72 h incubation period, the medium is removed, and the cells are washed twice with PBS. After the second wash with PBS, the plates are tapped gently to remove excess PBS, and the cells are placed at −70° C. for at least 30 min. The cells are thawed and analyzed using the CyQuant fluorescent dye (Molecular Probes C-7026), following the manufacturer's recommendations. The plates are read on a Victor/Wallac 1420 workstation at 485 nm/530 nm (excitation/emission). Raw data are collected and analyzed using a 4-parameter fit equation in XLFit. IC50 values are then determined.

Which IC50 does the source give for `COc1ccc(NC(=O)c2cccnc2Nc2ccc3cn[nH]c3c2)cc1OC1CCN(C)CC1` [Example 38, [2-(1H-Indazol-6-ylamino)(3-pyridyl)]-N-[4-methoxy-3-(1-methyl(4-piperidyl)oxy)phenyl]carboxamide] here?
Its IC50 is < 50 nM.

How did the IC50 turn out when `O=C(Nc1cc(OC[C@@H]2CCCN2)cc(C(F)(F)F)c1)c1cccnc1Nc1ccc2cn[nH]c2c1` [Example 97, 2-(1H-Indazol-6-ylamino)-N-[3-(2S-pyrrolidin-2-ylmethoxy)-5-trifluoromethyl-phenyl]-nicotinamide] was run?
The IC50 was < 50 nM.

Which IC50 does the source give for `CC(C)(C)c1ccc(NC(=O)c2cccnc2Nc2cccc3c2CNC3=O)cc1` [Example 600, N-(4-tert-Butyl-phenyl)-2-(1-oxo-2,3-dihydro-1H-isoindol-4-ylamino)-nicotinamide] here?
Its IC50 is < 50 nM.

For `CC(C)c1ccc(NC(=O)c2ccc(F)nc2Nc2ccc3cn[nH]c3c2)cc1` [Example 67, [6-Fluoro-2-(1H-indazol-6-ylamino)(3-pyridyl)]-N-[4-(methylethyl)phenyl]carboxamide], which IC50 is on record?
The IC50 was < 50 nM.

`O=C(Nc1ccc(C(OCCN2CCCCC2)(C(F)(F)F)C(F)(F)F)cc1)c1cccnc1Nc1ccc2cn[nH]c2c1` [Example 65, [2-(1H-Indazol-6-ylamino)(3-pyridyl)]-N-{4-[2,2,2-trifluoro-1-(2-piperidylethoxy)-1-(trifluoromethyl)ethyl]phenyl}carboxamide] was tested. Which IC50 did it give?
Its IC50 is < 50 nM.

For `CN1CC(C)(C)Oc2ccc(NC(=O)c3cccnc3Nc3ccc4cn[nH]c4c3)cc21` [Example 92, 2-(1H-Indazol-6-ylamino)-N-(2,2,4-trimethyl-3,4-dihydro-2H-benzo[1,4]oxazin-6-yl)-nicotinamide], which IC50 is on record?
Its IC50 is < 50 nM.

With `O=C(Nc1ccc(C(F)(F)C(F)(F)C(F)(F)C(F)(F)F)cc1)c1cccnc1Nc1ccc2cn[nH]c2c1` [Example 20, [2-(1H-Indazol-6-ylamino)(3-pyridyl)]-N-[4-(1,1,2,2,3,3,4,4,4-nonafluorobutyl)phenyl]carboxamide] as the compound, how does the IC50 read?
Its IC50 is < 50 nM.

Which IC50 does the source give for `O=C(Nc1ccc2c(c1)-c1nncn1CC2)c1cccnc1Nc1ccc2cn[nH]c2c1` [Example 39, [2-(1H-Indazol-6-ylamino)(3-pyridyl)]-N-(5,6,7-trihydro-1,2,4-triazolo[3,4-a]isoquinolin-2-yl)carboxamide] here?
Its IC50 is < 50 nM.

How did the IC50 turn out when `CN(C)CC(=O)N1CC(C)(C)c2ccc(NC(=O)c3cccnc3Nc3ccc4cn[nH]c4c3)cc21` [Example 107, N-[1-(2-Dimethylamino-acetyl)-3,3-dimethyl-2,3-dihydro-1H-indol-6-yl]-2-(1H-indazol-6-ylamino)-nicotinamide] was run?
The IC50 was < 50 nM.

`O=C(Nc1cc(NC(=O)c2cccnc2Nc2ccc3cn[nH]c3c2)cc(C(F)(F)F)c1)O[C@H]1CCOC1` [Example 581, (3S)-Tetrahydro-3-furanyl 3-(((2-(1H-indazol-6-ylamino)-3-pyridinyl)carbonyl)amino)-5-(trifluoromethyl)phenylcarbamate] was tested. Which IC50 did it give?
The IC50 was < 50 nM.

How did the IC50 turn out when `CN1CCC(C(C)(C)c2ccc(NC(=O)c3cccnc3Nc3ccc4cn[nH]c4c3)cc2)CC1` [Example 88, 2-(1H-Indazol-6-ylamino)-N-{4-[1-methyl-1-(1-methyl-piperidin-4-yl)-ethyl]-phenyl}-nicotinamide] was run?
Its IC50 is < 50 nM.

With `CC1(C)CC(=O)Nc2nc(NC(=O)c3cccnc3Nc3ccc4cn[nH]c4c3)ccc21` [Example 593, N-(5,5-Dimethyl-7-oxo-5,6,7,8-tetrahydro-[1,8]naphthyridin-2-yl)-2-(1H-indazol-6-ylamino)-nicotinamide] as the compound, how does the IC50 read?
The IC50 was < 50 nM.

`O=C(Nc1ccc2c(C(F)(F)F)cc(=O)oc2c1)c1cccnc1Nc1ccc2cn[nH]c2c1` [Example 120, 2-(1H-Indazol-6-ylamino)-N-(2-oxo-4-trifluoromethyl-2H-chromen-7-yl)-nicotinamide] was tested. Which IC50 did it give?
Its IC50 is < 50 nM.

`O=C(Nc1cc(OC2CCNCC2)cc(C(F)(F)F)c1)c1cccnc1Nc1ccc2cn[nH]c2c1` [Example 74, 2-(1H-Indazol-6-ylamino)-N-[3-(piperidin-4-yloxy)-5-trifluoromethyl-phenyl]-nicotinamide] was tested. Which IC50 did it give?
Its IC50 is < 50 nM.

`CC1(C)CCNc2cc(NC(=O)c3cccnc3Nc3ccc4c(c3)C(=O)NC4)ccc21` [Example 629, N-(4,4-Dimethyl-1,2,3,4-tetrahydro-isoguinolin-7-yl)-2-(1-oxo-2,3-dihydro-1H-isoindol-4-ylamino)-nicotinamide] was tested. Which IC50 did it give?
Its IC50 is < 50 nM.

How did the IC50 turn out when `CN1CCC(Cc2cc(NC(=O)c3cccnc3Nc3ccc4cn[nH]c4c3)cc(C(F)(F)F)c2)CC1` [Example 72, 2-(1H-Indazol-6-ylamino)-N-[3-(1-methyl-piperidin-4-ylmethyl)-5-trifluoromethyl-phenyl]-nicotinamide] was run?
Its IC50 is < 50 nM.

`O=C(Nc1ccc(C(F)(F)C(F)(F)F)c(CN2CCNCC2)c1)c1cccnc1Nc1ccc2cn[nH]c2c1` [Example 111, 2-(1H-Indazol-6-ylamino)-N-(4-pentafluoroethyl-3-piperazin-1-ylmethyl-phenyl)-nicotinamide] was tested. Which IC50 did it give?
Its IC50 is < 50 nM.

How did the IC50 turn out when `O=C1NCCc2ccc(NC(=O)c3cccnc3Nc3ccc4cn[nH]c4c3)cc21` [Example 27, 2-(1H-Indazol-6-ylamino)-N-(1-oxo-1,2,3,4-tetrahydro-isoguinolin-7-yl)-nicotinamide] was run?
Its IC50 is < 50 nM.

`CN1CCC(c2cc(NC(=O)c3cccnc3Nc3ccc4cn[nH]c4c3)cc(C(F)(F)F)c2)CC1` [Example 90, 2-(1H-Indazol-6-ylamino)-N-[3-(1-methyl-piperidin-4-yl)-5-trifluoromethyl-phenyl]-nicotinamide] was tested. Which IC50 did it give?
Its IC50 is < 50 nM.

`CC(C)N1CCC(COc2cc(NC(=O)c3cccnc3Nc3ccc4cn[nH]c4c3)ccc2C(F)(F)C(F)(F)F)CC1` [Example 79, 2-(1H-Indazol-6-ylamino)-N-[3-(1-isopropyl-piperidin-4-ylmethoxy)-4-pentafluoroethyl-phenyl]-nicotinamide] was tested. Which IC50 did it give?
The IC50 was < 50 nM.

How did the IC50 turn out when `CC(C)N1CCN(c2cc(NC(=O)c3cccnc3Nc3ccc4cn[nH]c4c3)ccc2C(C)(C)C)CC1` [Example 103, N-[4-tert-Butyl-3-(4-isopropyl-piperazin-1-yl)-phenyl]-2-(1H-indazol-6-ylamino)-nicotinamide] was run?
Its IC50 is < 50 nM.

For `CC1(C)CNc2cc(NC(=O)c3cccnc3Nc3ccc4cn[nH]c4c3)ccc2O1` [Example 101, N-(2,2-Dimethyl-3,4-dihydro-2H-benzo[1,4]oxazin-6-yl)-2-(1H-indazol-6-ylamino)-nicotinamide], which IC50 is on record?
The IC50 was < 50 nM.

`O=C(Nc1ccc(-c2ccccc2)cc1)c1cccnc1Nc1ccc2cn[nH]c2c1` [Example 45, [2-(1H-Indazol-6-ylamino)(3-pyridyl)]-N-(4-phenylphenyl)carboxamide] was tested. Which IC50 did it give?
Its IC50 is < 50 nM.

With `O=C(Nc1ccc(Oc2ccccc2)cc1)c1cccnc1Nc1ccc2cn[nH]c2c1` [Example 43, 2-(1H-Indazol-6-ylamino)-N-(4-phenoxy-phenyl)-nicotinamide] as the compound, how does the IC50 read?
Its IC50 is < 50 nM.

How did the IC50 turn out when `CC(C)(C)c1ccc(NC(=O)c2cccnc2Nc2ccc3cn[nH]c3c2)cc1NC1CCNCC1` [Example 124, N-[4-tert-Butyl-3-(piperidin-4-ylamino)-phenyl]-2-(1H-indazol-6-ylamino)-nicotinamide] was run?
The IC50 was < 50 nM.

How did the IC50 turn out when `CN1CCN(CCCc2ccc(NC(=O)c3cccnc3Nc3ccc4cn[nH]c4c3)cc2)CC1` [Example 61, [2-(1H-Indazol-6-ylamino)(3-pyridyl)]-N-{4-[3-(4-methylpiperazinyl)propyl]phenyl}carboxamide] was run?
The IC50 was < 50 nM.

How did the IC50 turn out when `O=C(Nc1ccc(C(O)(C(F)(F)F)C(F)(F)F)cc1)c1cccnc1Nc1ccc2cn[nH]c2c1` [Example 24] was run?
Its IC50 is < 50 nM.

With `CC1(C)CN(C(=O)[C@@H]2CCCN2)c2cc(NC(=O)c3cccnc3Nc3ccc4cn[nH]c4c3)ccc21` [Example 631, N-[3,3-Dimethyl-1-(pyrrolidine-2-carbonyl)-2,3-dihydro-1H-indol-6-yl]-2-(1H-indazol-6-ylamino)-nicotinamide] as the compound, how does the IC50 read?
Its IC50 is < 50 nM.

With `CN1CCC[C@H]1COc1cc(NC(=O)c2cccnc2Nc2ccc3cn[nH]c3c2)ccc1C(F)(F)F` [Example 616, 2-(1H-indazol-6-ylamino)-N-(3-((((2S)-1-methyl-2-pyrrolidinyl)methyl)oxy)-4-(trifluoromethyl)phenyl)-3-pyridinecarboxamide] as the compound, how does the IC50 read?
Its IC50 is < 50 nM.

With `O=C(Nc1ccc2ccn(CCN3CCOCC3)c2c1)c1cccnc1Nc1ccc2cn[nH]c2c1` [Example 62, [2-(1H-Indazol-6-ylamino)(3-pyridyl)]-N-[1-(2-morpholin-4-ylethyl)indol-6-yl]carboxamide] as the compound, how does the IC50 read?
The IC50 was < 50 nM.
